Measurements reported in EP1832655A2, “Methods for detecting and reversing resistance to macrocyclic lactone compounds” (priority 1997, dated 1998).

Legend:
Format in all cases: in vivo
[1] = system: H. contortus susceptible (PF14) strain; assay: Efficacy of verapamil with or without ivermectin in jirds, susceptible strain; settings: for % EFFICACY: SUSCEPTIBLE (PF14) strain in jirds, oral, VRP 20 mg/kg, IVM 0.024 mg/kg
Protocol: (§1) Jirds, which are fed on a standard commercial ration to which 0.02% hydrocortisone has been added 5 days prior to infection, are inoculated with 1000 exsheathed L3 H. contortus. On day 10 after inoculation, the jirds are treated with either water or various doses of moxidectin or ivermectin orally. Each treatment group contains 6 jirds. Probit analyses are used to estimate LD50 levels for each anthelmintic against each strain.
(§2) H. contortus. Verapamil is given concomitantly with ivermectin by the oral route. Table 3. DEM[…] H. contortus […] OR S[…] IN JIRDS (n = # per group)

[2] = system: MOXIDECTIN-RESISTANT STRAIN OF H. contortus (MOF14); assay: Effect of verapamil on efficacy of moxidectin and ivermectin in jirds, moxidectin-resistant strain; settings: for EFFICACY (%) / WORM COUNTS (MEAN ± S.E.): MOF14 in jirds, 7 jirds/group, oral, MOX 0.017 mg/kg, IVM 0.028 mg/kg, VRP 20 mg/kg
[3] = system: H. contortus moxidectin-resistant (MOF14) strain; assay: Efficacy of verapamil with or without ivermectin in jirds, moxidectin resistant strain; settings: for % EFFICACY: MOX-RESISTANT (MOF14) strain in jirds, oral, VRP 20 mg/kg, IVM 0.046 mg/kg
Protocol: as §1, §2

[4] = verapamil 20 mg/kg, resistant worms in jirds (Example 8)

22,23-dihydroavermectin B1 [ivermectin]
% EFFICACY [1]: 54%
EFFICACY (%) [2]: 80%
WORM COUNTS (MEAN ± S.E.) [2]: 9 ± 1
% EFFICACY [3]: 79%

COc1ccc(CCN(C)CCCC(C#N)(c2ccc(OC)c(OC)c2)C(C)C)cc1OC (centres unmarked) [verapamil]
% EFFICACY [1]: 17%
effect on worm counts ([1]; verapamil alone, 20 to 80 mg/kg oral, jirds infected with susceptible or moxidectin resistant H. contortus): no significant effect on worm counts
EFFICACY (%) [2]: -73%
WORM COUNTS (MEAN ± S.E.) [2]: 80 ± 9
effect of verapamil on the efficacy of moxidectin [2, 4]: significantly increases the efficacy of moxidectin
increase in efficacy when verapamil is coadministered with ivermectin [2, 4]: not significant
% EFFICACY [3]: -53%
effect of verapamil on the efficacy of ivermectin ([3]; verapamil 20 mg/kg, moxidectin resistant worms in jirds (Example 7)): significantly enhances the efficacy of ivermectin

CO/N=C1\C[C@]2(C[C@@H]3C[C@@H](C/C=C(\C)C[C@@H](C)/C=C/C=C4\CO[C@@H]5[C@H](O)C(C)=C[C@@H](C(=O)O3)[C@]45O)O2)O[C@H](/C(C)=C/C(C)C)[C@H]1C [moxidectin, 23-(O-methyloxime)-LL-F28249α]
EFFICACY (%) [2]: 70%
WORM COUNTS (MEAN ± S.E.) [2]: 14 ± 3
